Laboratory results published in the NIST ThermoML archive (doi:10.1021/acs.jced.9b00422).
Numbers after ± are expanded uncertainties.

Assay: wn = mass fraction of the nth substance listed
Conditions: 323 K, 101.3 kPa, Liquid, Pycnometric method

[Ca+2].[Cl-].[Cl-] [calcium chloride] + O
mass density (w1 = 0.568): 1538.2 ± 6.6 kg/m3

[Cl-].[Na+] [sodium chloride] + O
mass density (w1 = 0.2722): 1175 ± 2.4 kg/m3

[Cl-].[Cl-].[Zn+2] [zinc chloride] + O
mass density (w1 = 0.8225): 2274.8 ± 7 kg/m3
